The values below come from US8536198B2, “Piperidine derivatives as modulators of chemokine receptor activity” (Bristol-Myers Squibb Company, priority 2007, dated 2013).

This experiment deals with CCR1 (Homo sapiens (Human), UniProt P32246). In words: CCR1 Ligand Binding Scintillation Proximity Assay (SPA). The following applies: [125I]-MIP-1α competition binding on THP-1 monocytic leukemia cells, 12 h at room temperature. How it is done:
CCR1 Ligand Binding Scintillation Proximity Assay (SPA)
For radioligand competition studies, a final concentration of 1×10^5 THP-1 monocytic leukemia cells are combined with 100 μg of LS WGA PS beads (Amersham, Cat.#: RPNQ 0260) in 40 μl of assay buffer (RPMI 1640 without phenol red, 50 mM HEPES, 5 mM MgCl2, 1 mM CaCl2, 0.1% BSA). The THP-1 cell/bead mixture is added to each well of a 384-well assay plate (PerkinElmer, Cat. #:6007899) containing test compound in 3-fold serial dilution, with final concentrations ranging from 8 μM to […]. A final concentration of 0.1 nM [^125I]-MIP-1α (PerkinElmer, Cat. # NEX298) in 20 μl assay buffer is added to the reaction. Sealed assay plates are incubated at room temperature for 12 h then analyzed by LEADseeker™.
The competition data of the test compound over a range of concentrations is plotted as percentage inhibition of radioligand specific bound in the absence of test compound (percent of total signal). After correcting for non-specific binding, IC50 values are determined. The IC50 value is defined as the concentration of test compound needed to reduce [^125I]-MIP-1α specific binding by 50% and is calculated using the four parameter logistic equation to fit the normalized data. The Ki values are determined by application of the Cheng-Prusoff equation to the IC50 values, where Ki=IC50/(1+ ligand concentration/Kd) The Kd of [^125I]-MIP-1α in THP-1 cells is 0.1 nM. Each experiment is run in duplicate.

CCR1, sequence (P32246 whole entry): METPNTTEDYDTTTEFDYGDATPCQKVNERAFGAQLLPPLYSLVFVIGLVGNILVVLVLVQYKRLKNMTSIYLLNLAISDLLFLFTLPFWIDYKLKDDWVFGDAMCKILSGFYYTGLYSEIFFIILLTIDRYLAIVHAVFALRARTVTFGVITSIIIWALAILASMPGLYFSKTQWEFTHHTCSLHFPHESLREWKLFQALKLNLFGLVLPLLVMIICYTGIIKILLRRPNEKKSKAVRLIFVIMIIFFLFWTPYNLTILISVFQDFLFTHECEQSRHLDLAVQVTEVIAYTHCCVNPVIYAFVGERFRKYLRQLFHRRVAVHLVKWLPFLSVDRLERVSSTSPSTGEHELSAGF

`CC1(C)CN(C(=O)[C@H]2CCC[C@H]2NC(=O)c2cccc(S(N)(=O)=O)c2)CC[C@]1(O)c1ccc(Cl)cc1` [Example 80] registered a concentration for half-maximal inhibition (IC50) of 1 nM. `CC1(C)CN(C(=O)[C@H]2CCCC[C@H]2NC(=O)c2cccc(C(=O)O)c2)CC[C@]1(O)c1ccc(C#N)cc1` [Example 100, 3-((1R,2S)-2-((S)-4-(4-Cyanophenyl)-4-hydroxy-3,3-dimethylpiperidine-1-carbonyl)cyclohexylcarbamoyl)benzoic acid] showed an IC50 of 11.3 nM. In turn, `COC(=O)N[C@@H]1CCCC[C@@H]1C(=O)N1CC[C@](O)(c2ccc(Cl)cc2)C(C)(C)C1` [Example 41] showed an IC50 of 997 nM. `CC1(C)CN(C(=O)[C@H]2CCCC[C@H]2NC(=O)c2ccccc2)CC[C@]1(O)c1ccc(Cl)cc1` [Example 2, N-((1R,2S)-2-((S)-4-(4-Chlorophenyl)-4-hydroxy-3,3-dimethylpiperidine-1-carbonyl)cyclohexyl)benzamide] gave an IC50 of 2.1 nM. As to `CC1(C)CN(C(=O)[C@H]2CCCC[C@@]2(C)NC(=O)c2ccccc2)CC[C@]1(O)c1ccc(Cl)cc1` [Example 104], the IC50 is 818 nM. Then `CC1(C)CN(C(=O)[C@H]2CCCC[C@H]2NC(=O)Nc2ccccc2)CC[C@]1(O)c1ccc(Cl)cc1` [Example 35], with 18.5 nM. `CC1(C)CN(C(=O)[C@H]2CCCC[C@H]2NC(=O)c2cncnc2)CC[C@]1(O)c1ccc(Cl)cc1` [Example 57] displayed an IC50 of 18.7 nM.

Turning to `CC1(C)CN(C(=O)[C@H]2CC(=O)CC[C@H]2NC(=O)c2ccccc2)CC[C@]1(O)c1ccc(Cl)cc1` [Example 11, N-((1R,2S)-2-((S)-4-(4-Chlorophenyl)-4-hydroxy-3,3-dimethylpiperidine-1-carbonyl)-4-oxocyclohexyl)benzamide], the IC50 came to 17.2 nM. Then `CC1(C)CN(C(=O)[C@H]2CC3(CC[C@H]2NC(=O)c2ccccc2)OCCO3)CC[C@]1(O)c1ccc(Cl)cc1` [Example 10, N-((7S,8R)-7-((S)-4-(4-Chlorophenyl)-4-hydroxy-3,3-dimethylpiperidine-1-carbonyl)-1,4-dioxaspiro[4.5]decan-8-yl)benzamide], with 1060 nM; and `C[C@H](NC(=O)N[C@@H]1CCCC[C@@H]1C(=O)N1CC[C@](O)(c2ccc(Cl)cc2)C(C)(C)C1)C(C)(C)O` [Example 106], with 0.7 nM; and `CC1(C)CN(C(=O)[C@H]2CCCC[C@H]2NC(=O)CCN2CCCCC2)CC[C@]1(O)c1ccc(Cl)cc1` [Example 58], with 932 nM. For `CC1(C)CN(C(=O)[C@H]2CCC[C@H]2NC(=O)[C@@H]2CC[C@H](O)C2)CC[C@]1(O)c1ccc(Cl)cc1` [Example 83] the value was 14 nM; for `CC1(C)CN(C(=O)[C@H]2CCCC[C@H]2NC(=O)[C@@H](O)c2ccccc2)CC[C@]1(O)c1ccc(Cl)cc1` [Example 68], 581 nM. For the compound `CC1(C)CN(C(=O)[C@H]2CCC[C@H]2NC(=O)[C@H]2CC[C@@H](O)C2)CC[C@]1(O)c1ccc(Cl)cc1` [Example 84], the half-maximal inhibitory concentration (IC50) was found to be 1.5 nM. For `CC1(C)CN(C(=O)[C@H]2CCC[C@H]2NC(=O)C2CCCC2)CC[C@]1(O)c1ccc(Cl)cc1` [Example 86] the value was 1.3 nM; for `CC1(C)CN(C(=O)[C@H]2CCC[C@H]2NC(=O)Nc2ccccc2)CC[C@]1(O)c1ccc(Cl)cc1` [Example 9, 1-((1R,2S)-2-((S)-4-(4-Chlorophenyl)-4-hydroxy-3,3-dimethylpiperidine-1-carbonyl)cyclopentyl)-3-phenylurea], 11.5 nM. Then `CC1(C)CN(C(=O)[C@H]2CCC[C@H]2NC(=O)c2cccc(C(N)=O)c2)CC[C@]1(O)c1ccc(Cl)cc1` [Example 89], with 1.8 nM; and `CC1(C)CN(C(=O)[C@H]2CCCC[C@H]2NC(=O)CCc2ccccc2)CC[C@]1(O)c1ccc(Cl)cc1` [Example 60], with 15.7 nM; and `CC1(C)CN(C(=O)[C@H]2CCCC[C@H]2NC(=O)CO)CC[C@]1(O)c1ccc(Cl)cc1` [Example 61], with 768 nM.

Regarding `CC1(C)CN(C(=O)[C@H]2CCC[C@H]2NC(=O)c2cccc(C(=O)O)c2)CC[C@]1(O)c1ccc(Cl)cc1` [Example 85], the IC50 came to 1.6 nM. With `CC1(C)CN(C(=O)[C@H]2CCCC[C@H]2NC(=O)[C@H](O)c2ccccc2)CC[C@]1(O)c1ccc(Cl)cc1` [Example 67], the IC50 came to 858 nM.

On to `C[C@@H](O)CNC(=O)N[C@@H]1CCCC[C@@H]1C(=O)N1CC[C@](O)(c2ccc(Cl)cc2)C(C)(C)C1` [Example 76], for which the concentration for half-maximal inhibition (IC50) was determined as 14.6 nM. The compound `CC(C)(C)OC(=O)N[C@@H]1CCC[C@@H]1C(=O)N1CC[C@](O)(c2ccc(Cl)cc2)C(C)(C)C1` [Example 7, tert-Butyl (1R,2S)-2-((S)-4-(4-chlorophenyl)-4-hydroxy-3,3-dimethylpiperidine-1-carbonyl)cyclopentylcarbamate] yielded an IC50 of 12.1 nM.
